Source: patent US6211244A, “Calcium receptor-active compounds” (priority 1995, dated 2001)
Where two headings read alike, the source gives them in different places.

Target: T1, human calcium receptor (Homo sapiens, UniProt P41180, R990G)
T1 construct: expressed in transfected cells; host or cells: HEK 293
T1 sequence (P41180 20-1078 R990G): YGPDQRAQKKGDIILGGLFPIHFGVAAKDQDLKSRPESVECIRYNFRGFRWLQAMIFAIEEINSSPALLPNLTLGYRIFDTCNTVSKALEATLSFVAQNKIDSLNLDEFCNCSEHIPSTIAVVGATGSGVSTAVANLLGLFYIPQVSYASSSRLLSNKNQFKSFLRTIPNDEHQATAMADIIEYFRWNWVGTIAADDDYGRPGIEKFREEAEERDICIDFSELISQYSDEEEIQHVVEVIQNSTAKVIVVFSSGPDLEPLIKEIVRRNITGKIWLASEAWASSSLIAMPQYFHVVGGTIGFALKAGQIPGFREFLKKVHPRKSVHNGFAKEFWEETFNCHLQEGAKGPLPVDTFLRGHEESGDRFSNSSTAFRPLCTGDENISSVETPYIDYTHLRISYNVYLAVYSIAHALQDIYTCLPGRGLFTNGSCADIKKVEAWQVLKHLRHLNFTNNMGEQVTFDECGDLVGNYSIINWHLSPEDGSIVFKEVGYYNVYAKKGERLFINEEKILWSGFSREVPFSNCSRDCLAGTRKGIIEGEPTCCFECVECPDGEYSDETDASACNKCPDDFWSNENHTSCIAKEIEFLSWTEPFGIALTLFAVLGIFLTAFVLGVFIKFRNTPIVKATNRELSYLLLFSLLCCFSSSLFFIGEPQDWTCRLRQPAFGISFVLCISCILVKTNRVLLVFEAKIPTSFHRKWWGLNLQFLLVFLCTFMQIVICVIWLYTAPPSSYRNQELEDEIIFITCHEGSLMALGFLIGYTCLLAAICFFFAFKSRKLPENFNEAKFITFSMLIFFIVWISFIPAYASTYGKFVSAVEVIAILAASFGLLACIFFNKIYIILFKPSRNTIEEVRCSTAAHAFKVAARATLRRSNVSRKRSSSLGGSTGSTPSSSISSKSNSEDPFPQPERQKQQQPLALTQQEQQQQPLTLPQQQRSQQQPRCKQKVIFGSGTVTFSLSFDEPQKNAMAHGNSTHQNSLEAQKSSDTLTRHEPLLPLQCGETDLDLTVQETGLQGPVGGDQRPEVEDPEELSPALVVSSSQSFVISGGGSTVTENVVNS
Experiment: increases in [Ca^2+ ]i in HEK-293 cells expressing the human calcium receptor (fura-2 loaded HEK 293/pHuPCaR4.0 cells), % activity
Type: cell-based
Details: for activity at […]: HEK293

| Structure (SMILES) | % activity (33 ng/mL) | % activity (330 ng/mL) | % activity (3300 ng/mL) | % activity | activity at […] (33 ng/mL) | activity at […] (330 ng/mL) |
| --- | --- | --- | --- | --- | --- | --- |
| COc1cccc([C@@H](C)NCc2cccc(OCc3ccccc3)c2)c1 [Compound 11W] | 44% | 81% | – | – | – | – |
| COc1ccc([C@@H](C)N[C@@H](C)c2cccc3ccccc23)cc1C [Compound 25W] | 42% | 69% | 95% | – | – | – |
| CC(NCc1ccc(-c2ccccc2)cc1)c1cccc2ccccc12 (stereo not drawn) [Compound 10N] | 77% | 97% | 106% | – | – | – |
| COc1cccc(C(C)NC(C)c2cccc(OC)c2)c1 (stereo not drawn) [Compound 16N] | 82% | 159% | 122% | – | – | – |
| COc1ccc(CNC(C)c2ccc(C(F)(F)F)cc2)cc1C (stereo not drawn) [Compound 24D] | 34% | 53% | 87% | – | – | – |
| CCN(CCCc1ccccc1)C(C)c1ccc(C(C)(C)C)cc1 (stereo not drawn) [Compound 14I] | 11% | – | 80% | 45 | – | – |
| COc1cc(C)c(CN[C@H](C)c2cccc3ccccc23)cc1C [Compound 16U] | 50% | 85% | – | – | – | – |
| COc1ccc(CNC(C)c2ccccc2F)cc1C (stereo not drawn) [Compound 23J] | 51% | 61% | 102% | – | – | – |
| CC(C)c1ccc([C@@H](C)N[C@H](C)c2cccc3ccccc23)cc1 [Compound 14L] | – | – | – | – | 78% | 109% |
| COc1cccc(C(C)NCCCc2ccccc2C(F)(F)F)c1 (stereo not drawn) [Compound 4V] | 59% | 93% | – | – | – | – |
| CC(NC(C)c1ccc(C(C)(C)C)cc1)c1ccccc1 (stereo not drawn) [Compound 13E] | 40% | 94% | 123% | – | – | – |
| CC(NCCC(c1ccccc1)c1ccccc1)c1ccccc1Cl (stereo not drawn) [Compound 2X] | – | 66% | – | 15 | – | – |
| COc1cccc([C@@H](C)NCCCc2cccc(OC(F)(F)F)c2)c1 [Compound 21M] | 58% | 102% | – | – | – | – |
| CC(NCCCC1CCCCC1)c1ccccc1 (stereo not drawn) [Compound 1T] | – | 76% | – | – | – | – |
| COc1cccc([C@@H](C)NCCCc2ccccc2I)c1 [Compound 17R] | 65% | 98% | – | – | – | – |
| COc1cccc([C@@H](C)NCc2cccc(Oc3ccccc3)c2)c1 [Compound 12H] | 94% | 115% | 114% | – | – | – |
| CCOc1ccc(CN[C@H](C)c2cccc3ccccc23)cc1C [Compound 25A] | 114% | 120% | 122% | – | – | – |
| COc1ccc([C@@H](C)N[C@H](C)c2cccc(OC)c2)cc1 [Compound 16L, (R,R)-N-[1-(4-methoxyphenyl)ethyl]-1-(3-methoxyphenyl)ethylamine] | 98% | 138% | 146% | – | – | – |
| CCc1cccc(C(C)NCc2ccc(OC)c(C)c2)c1 (stereo not drawn) [Compound 23Z] | 100% | 126% | 129% | – | – | – |
